molecular target: CD73 (Homo sapiens (Human), UniProt P21589); test: Biochemical Assay (CD73 inhibition, AMP hydrolysis, Malachite Green readout); conditions: CD73 0.3208 nM, AMP 15 μM, Tris-HCl pH 7.4, Malachite Green absorbance
Sequence (P21589 27-574): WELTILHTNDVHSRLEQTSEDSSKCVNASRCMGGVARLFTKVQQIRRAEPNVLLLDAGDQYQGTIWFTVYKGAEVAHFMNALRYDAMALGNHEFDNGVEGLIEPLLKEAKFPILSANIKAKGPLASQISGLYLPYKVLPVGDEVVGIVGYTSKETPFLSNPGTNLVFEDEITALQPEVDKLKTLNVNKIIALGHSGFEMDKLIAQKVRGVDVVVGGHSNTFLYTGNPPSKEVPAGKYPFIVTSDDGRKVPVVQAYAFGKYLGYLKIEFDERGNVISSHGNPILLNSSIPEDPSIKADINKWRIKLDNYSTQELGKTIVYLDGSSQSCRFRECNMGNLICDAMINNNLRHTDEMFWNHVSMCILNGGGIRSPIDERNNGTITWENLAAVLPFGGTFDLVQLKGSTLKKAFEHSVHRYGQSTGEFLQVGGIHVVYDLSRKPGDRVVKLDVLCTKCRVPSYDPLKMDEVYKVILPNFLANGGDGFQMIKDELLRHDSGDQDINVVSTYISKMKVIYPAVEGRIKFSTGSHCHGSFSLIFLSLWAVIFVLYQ

| IC50 [nM] | Compound |
| --- | --- |
| ≤ 500 | O=P(O)(O)CS(=O)(=O)C[C@H]1O[C@@H](n2ncc3c(NC4CCCC4)nc(Cl)nc32)[C@H](O)[C@@H]1O [Example 66, (((((2S,3S,4R,5R)-5-(6-chloro-4-(cyclopentylamino)-1H-pyrazolo[3,4-d]pyrimidin-1-yl)-3,4-dihydroxytetrahydrofuran-2-yl)methyl)sulfonyl)methyl)phosphonic acid] |
| ≤ 500 | O=P(O)(O)COC[C@H]1O[C@@H](n2ncc3c(NCc4cccc5ccccc45)nc(Cl)nc32)[C@H](O)[C@@H]1O [Example 49, ((((2R,3S,4R,5R)-5-(6-chloro-4-((naphthalen-1-ylmethyl)amino)-1H-pyrazolo[3,4-d]pyrimidin-1-yl)-3,4-dihydroxytetrahydrofuran-2-yl)methoxy)methyl)phosphonic acid] |
| ≤ 500 | C[C@@H](Nc1nc(Cl)nc2c1cnn2[C@@H]1O[C@H](COCP(=O)(O)O)[C@@H](O)[C@H]1O)C1CC1 [Example 92, ((((2R,3S,4R,5R)-5-(6-chloro-4-(((R)-1-cyclopropylethyl)amino)-1H-pyrazolo[3,4-d]pyrimidin-1-yl)-3,4-dihydroxytetrahydrofuran-2-yl)methoxy)methyl)phosphonic acid] |
| ≤ 500 | O=P(O)(O)COC[C@H]1O[C@@H](n2ncc3c(NC4CC(F)(F)C4)nc(Cl)nc32)[C@H](O)[C@@H]1O [Example 87, ((((2R,3S,4R,5R)-5-(6-chloro-4-((3,3-difluorocyclobutyl)amino)-1H-pyrazolo[3,4-d]pyrimidin-1-yl)-3,4-dihydroxytetrahydrofuran-2-yl)methoxy)methyl)phosphonic acid] |
| ≤ 500 | O=P(O)(O)CS(=O)(=O)C[C@H]1O[C@@H](n2nnc3c(NCc4ccccc4Cl)nc(Cl)nc32)[C@H](O)[C@@H]1O [Example 118, (((((2S,3S,4R,5R)-5-(5-chloro-7-((2-chlorobenzyl)amino)-3H[1,2,3]triazolo[4,5-d]pyrimidin-3-yl)-3,4-dihydroxytetrahydrofuran-2-yl)methyl)sulfonyl)methyl)phosphonic acid] |
| ≤ 500 | CC1(C)CCC[C@@H]1Nc1nc(Cl)nc2c1cnn2[C@@H]1O[C@H](COCP(=O)(O)O)[C@@H](O)[C@H]1O [Example 102, ((((2R,3S,4R,5R)-5-(6-chloro-4-(((S)-2,2-dimethylcyclopentyl)amino)-1H-pyrazolo[3,4-d]pyrimidin-1-yl)-3,4-dihydroxytetrahydrofuran-2-yl)methoxy)methyl)phosphonic acid] |
| ≤ 500 | O=P(O)(O)COC[C@H]1O[C@@H](n2ncc3c(NC[C@@H]4CCCO4)nc(Cl)nc32)[C@H](O)[C@@H]1O [Example 69, ((((2R,3S,4R,5R)-5-(6-chloro-4-((((S)-tetrahydrofuran-2-yl)methyl)amino)-1H-pyrazolo[3,4-d]pyrimidin-1-yl)-3,4-dihydroxytetrahydrofuran-2-yl)methoxy)methyl)phosphonic acid] |
| ≤ 500 | O=P(O)(O)CS(=O)(=O)C[C@H]1O[C@@H](n2nnc3c(NCc4cccc(Cl)c4)nc(Cl)nc32)[C@H](O)[C@@H]1O [Example 122] |
| ≤ 500 | O=P(O)(O)COC[C@H]1O[C@@H](n2ncc3c(NC4CC4)nc(Cl)nc32)[C@H](O)[C@@H]1O [Example 76, ((((2R,3S,4R,5R)-5-(6-chloro-4-(cyclopropylamino)-1H-pyrazolo[3,4-d]pyrimidin-1-yl)-3,4-dihydroxytetrahydrofuran-2-yl)methoxy)methyl)phosphonic acid] |
| ≤ 500 | CN(C[C@H]1O[C@@H](n2ncc3c(NC4CCCC4)nc(Cl)nc32)[C@H](O)[C@@H]1O)S(=O)(=O)CP(=O)(O)O [Example 98, ((N-(((2R,3S,4R,5R)-5-(6-Chloro-4-(cyclopentylamino)-1H-pyrazolo[3,4-d]pyrimidin-1-yl)-3,4-dihydroxytetrahydrofuran-2-yl)methyl)-N-methylsulfamoyl)methyl)phosphonic acid] |
| ≤ 500 | CN(C[C@H]1O[C@@H](n2ncc3c(NCc4ccccc4Cl)nc(Cl)nc32)[C@H](O)[C@@H]1O)C(=O)CP(=O)(O)O [Example 9, (2-((((2R,3S,4R,5R)-5-(6-chloro-4-((2-chlorobenzyl)amino)-1H-pyrazolo[3,4-d]pyrimidin-1-yl)-3,4-dihydroxytetrahydrofuran-2-yl)methyl)(methyl)amino)-2-oxoethyl)phosphonic acid] |
| > 1000 | CC(C)CNc1nc(NCc2cccc(Cl)c2)c2cnn([C@@H]3O[C@H](COCP(=O)(O)O)[C@@H](O)[C@H]3O)c2n1 [Example 67, ((((2R,3S,4R,5R)-5-(4-((3-chlorobenzyl)amino)-6-(isobutylamino)-1H-pyrazolo[3,4-d]pyrimidin-1-yl)-3,4-dihydroxytetrahydrofuran-2-yl)methoxy)methyl)phosphonic acid] |
| ≤ 500 | O=P(O)(O)CSC[C@H]1O[C@@H](n2ncc3c(NCc4ccccc4Cl)nc(Cl)nc32)[C@H](O)[C@@H]1O [Example 13, (((((2S,3S,4R,5R)-5-(6-Chloro-4-((2-chlorobenzyl)amino)-1H-pyrazolo[3,4-d]pyrimidin-1-yl)-3,4-dihydroxytetrahydrofuran-2-yl)methyl)thio)methyl)phosphonic acid] |
| ≤ 500 | O=P(O)(O)CS(=O)(=O)C[C@H]1O[C@@H](n2nnc3c(NCC4CCC4)nc(Cl)nc32)[C@H](O)[C@@H]1O [Example 113, (((((2S,3S,4R,5R)-5-(5-chloro-7-((cyclobutylmethyl)amino)-3H-[1,2,3]triazolo[4,5-d]pyrimidin-3-yl)-3,4-dihydroxytetrahydrofuran-2-yl)methyl)sulfonyl)methyl)phosphonic acid] |
| > 1000 | C[C@@H](c1cccc(Cl)c1)N(C)c1nc(Cl)nc2c1cnn2[C@@H]1O[C@H](COCP(=O)(O)O)[C@@H](O)[C@H]1O [Example 36] |
| ≤ 500 | CC1(CNc2nc(Cl)nc3c2cnn3[C@@H]2O[C@H](COCP(=O)(O)O)[C@@H](O)[C@H]2O)CC1 [Example 96, ((((2R,3S,4R,5R)-5-(6-chloro-4-(((1-methylcyclopropyl)methyl)amino)-1H-pyrazolo[3,4-d]pyrimidin-1-yl)-3,4-dihydroxytetrahydrofuran-2-yl)methoxy)methyl)phosphonic acid] |
| ≤ 500 | O=P(O)(O)COC[C@H]1O[C@@H](n2ncc3c(NCc4cccc(Cl)c4)nc(Cl)nc32)[C@H](O)[C@@H]1O [Example 27, ((((2R,3S,4R,5R)-5-(6-chloro-4-((3-chlorobenzyl)amino)-1H-pyrazolo[3,4-d]pyrimidin-1-yl)-3,4-dihydroxytetrahydrofuran-2-yl)methoxy)methyl)phosphonic acid] |
| ≤ 500 | N#Cc1cccc(CNc2nc(Cl)nc3c2cnn3[C@@H]2O[C@H](COCP(=O)(O)O)[C@@H](O)[C@H]2O)c1 [Example 46, ((((2R,3S,4R,5R)-5-(6-chloro-4-((3-cyanobenzyl)amino)-1H-pyrazolo[3,4-d]pyrimidin-1-yl)-3,4-dihydroxytetrahydrofuran-2-yl)methoxy)methyl)phosphonic acid] |
| ≤ 500 | Cc1cccc(CNc2nc(Cl)nc3c2cnn3[C@@H]2O[C@H](COCP(=O)(O)O)[C@@H](O)[C@H]2O)c1 [Example 41, ((((2R,3S,4R,5R)-5-(6-chloro-4-((3-methylbenzyl)amino)-1H-pyrazolo[3,4-d]pyrimidin-1-yl)-3,4-dihydroxytetrahydrofuran-2-yl)methoxy)methyl)phosphonic acid] |
| ≤ 500 | O=P(O)(O)CS(=O)(=O)C[C@H]1O[C@@H](n2ncc3c(NCC4CC4)nc(Cl)nc32)[C@H](O)[C@@H]1O [Example 62] |
| ≤ 500 | O=P(O)(O)CS(=O)(=O)NC[C@H]1O[C@@H](n2ncc3c(NCc4ccccc4Cl)nc(Cl)nc32)[C@H](O)[C@@H]1O [Example 3, ((N-(((2R,3S,4R,5R)-5-(6-Chloro-4-((2-chlorobenzyl)amino)-1H-pyrazolo[3,4-d]pyrimidin-1-yl)-3,4-dihydroxytetrahydrofuran-2-yl)methyl)sulfamoyl)methyl)phosphonic acid] |
| ≤ 500 | O=P(O)(O)CS(=O)(=O)C[C@H]1O[C@@H](n2ncc3c(NC4Cc5ccccc5C4)nc(Cl)nc32)[C@H](O)[C@@H]1O [Example 126, (((((2S,3S,4R,5R)-5-(6-chloro-4-((2,3-dihydro-1H-inden-2-yl)amino)-1H-pyrazolo[3,4-d]pyrimidin-1-yl)-3,4-dihydroxytetrahydrofuran-2-yl)methyl)sulfonyl)methyl)phosphonic acid] |
| > 1000 | CN(Cc1ccccc1)c1nc(Cl)nc2c1cnn2[C@@H]1O[C@H](COCCP(=O)(O)O)[C@@H](O)[C@H]1O [Example 5, (2-(((2R,3S,4R,5R)-5-(4-(Benzyl(methyl)amino)-6-chloro-1H-pyrazolo[3,4-d]pyrimidin-1-yl)-3,4-dihydroxytetrahydrofuran-2-yl)methoxy)ethyl)phosphonic acid] |
| ≤ 500 | O=P(O)(O)COC[C@H]1O[C@@H](n2ncc3c(NCC4CCC4)nc(Cl)nc32)[C@H](O)[C@@H]1O [Example 68, ((((2R,3S,4R,5R)-5-(6-chloro-4-((cyclobutylmethyl)amino)-1H-pyrazolo[3,4-d]pyrimidin-1-yl)-3,4-dihydroxytetrahydrofuran-2-yl)methoxy)methyl)phosphonic acid] |
| > 1000 | O=P(O)(O)COCC[C@H]1O[C@@H](n2ncc3c(NCC4CC4)nc(Cl)nc32)[C@H](O)[C@@H]1O [Example 85, ((2-((2R,3S,4R,5R)-5-(6-chloro-4-((cyclopropylmethyl)amino)-1H-pyrazolo[3,4-d]pyrimidin-1-yl)-3,4-dihydroxytetrahydrofuran-2-yl)ethoxy)methyl)phosphonic acid] |
| ≤ 500 | CN(CC1CC1)c1nc(Cl)nc2c1cnn2[C@@H]1O[C@H](CS(=O)(=O)CP(=O)(O)O)[C@@H](O)[C@H]1O [Example 84, (((((2S,3S,4R,5R)-5-(6-chloro-4-((cyclopropylmethyl)(methyl)amino)-1H-pyrazolo[3,4-d]pyrimidin-1-yl)-3,4-dihydroxytetrahydrofuran-2-yl)methyl)sulfonyl)methyl)phosphonic acid] |

| Compound | IC50 [nM] |
| --- | --- |
| ((((2R,3S,4R,5R)-5-(5-chloro-7-((3- chlorobenzyl)pamino)-3H[1,2,3]triazolo[4,5- d]pyrimidin-3-yl)-3,4- dihydroxytetrahydrofuran-2- yl)methoxy)methyl)phosphonic acid [Example 24] | ≤ 500 |
